Experiments:
Target C [1] = assay: HiBiT protein abundance assay, Target C HiBiT K562 cell line; assay type: cell-based; settings: Homo sapiens; HiBiT lytic detection, modified K562 cells, 24 hours, top dose 10 μM; read-out: Effect on protein abundance, Target C (IC50)
Experimental: • Promega Nano-Glo HiBiT Lytic Detection System (cat #N3030) • Corning 384-well TC-treated microplates (cat #3570) • Synthego Engineered Cells Knock-In Clones
Cells were maintained in IMDM with 10% FBS. Before the assay, cells were diluted with […] growth media (IMDM+[…] media) and were seeded in a 384-well plate at a density of 10,000 cells/well (for each cell line listed in Table 5). Each compound was prepared as a 10-point 3-fold serial dilution in DMSO with the top dose at a final concentration of 10 μM in the well. Unmodified K562 cells were added at the previously specified density with DMSO to serve as an assay baseline and positive control (PC) and DMSO only with the respective modified cell lines was added to the negative control (NC) columns. Final DMSO concentration was kept at or below 0.25%. Treated cell plates were placed in an incubator at 37° C. with […] for 24 hours. After 24 hours, 25 μL of Complete HiBit Lytic reagent was added to each well at room temperature (e.g. one plate requiring 10 mL Lytic Buffer, 100 μL LgBiT Protein, 200 μL Lytic Substrate), shaken for 5 minutes at 600 RPM, then left to sit for 10 minutes for signal to stabilize before reading on a Spark Cyto plate reader (Tecan) with a 500 ms measurement time.
To determine compound effects on protein abundance of each target in Table 5, the percent response for each respective cell line was calculated at each compound concentration as follows:
For the normalized response at each concentration, a four-parameter logistical regression was fit to the data and the response was interpolated at the […] to determine a concentration for protein abundance at […] the untreated control.

Target C [2] = assay: RT-qPCR splicing assay panel, Target C canonical junction (CJ) mRNA; assay type: cell-based, human; settings: Homo sapiens; Table 5 panel; canonical junction qPCR; compound concentration having 50% response in CJ decrease; read-out: Target C IC50 (decrease in CJ mRNA levels)
Method in brief: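 Canonical exon-exon junction transcript levels measured by one-step RT-qPCR of cell lysates, normalized to a housekeeping gene (GAPDH, GUSB or PPIA). Cells used were A673 or K562, exposed for 24 h to compound in 11-point, 3-fold series from 10 uM, with final DMSO at or below 0.25%.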

MYB = assay: HiBiT protein abundance assay, MYB HiBiT K562 cell line; assay type: cell-based, human; settings: HiBiT lytic detection, modified K562 cells, 24 hours, top dose 10 μM; read-out: Effect on protein abundance, MYB (IC50)
Method in brief: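 Tagged-protein abundance measured by split-NanoBiT luminescence after lysis, following 24 h compound exposure (37° C; 10 μM top, 3-fold, 10 points; DMSO ≤0.25%) of HiBiT knock-in K562 cells. Percent response vs DMSO and unmodified-cell controls; 4-parameter logistic interpolation at 50% gave IC50.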

SMILES | IC50 (Target C [1]) | IC50 (Target C [2]) | IC50 (MYB)
Cc1cn2nc(-c3ccn4c(=O)c(C5=CCNCC5)ncc4c3)cc(C)c2n1 [Compound 1182] | 0.1 to 1 µM | 0.1 to 1 µM | 0.1 to 1 µM
CNC1CCN(c2ccc3cc(-c4cc(C)c5nc(C)cn5n4)ccn3c2=O)C1 (stereo not drawn) [Compound 1158] | 1 to 10 µM | 1 to 10 µM | 0.1 to 1 µM
Cc1cn2nc(-c3ccn4c(=O)c(C5CCNCC5)ccc4c3)cc(C)c2n1 [Compound 1181] | < 0.1 µM | < 0.1 µM | < 0.1 µM
